These results are taken from patent publication US20220133701A1, “METHODS OF TREATING PAIN” (Yeda Research and Development Co. Ltd., priority 2019, published 2022).

“Also recorded” adds a separate entry of the source.

One data set relates to mice. The data set can be described thus: Response to noxious heat (metal probe heated to 58° C. applied to paw, paw withdrawal latency). Format: in vivo, mouse. The note with it: for responsiveness to noxious heat: WT mice, 1 hour following i.p. injection, sulmazole 0.5 mg/kg, sulfamethizole 1.25 mg/kg (FIG. 8A). As for the experimental part:
Pain Models—Responses to noxious heat were assessed by applying a metal probe heated to 58° C. to a forelimb paw, while holding the animal. Paw withdrawal latency was timed, typically ranging between 2-4 seconds in wild-type animals. If the paw was not withdrawn within 20 seconds the assay was terminated. The test was repeated three times for each animal, with at least 20 minute intervals between repeats. Heat sensitivity was also assessed using the hot plate test [L. Urien et al., Sci Rep 7, 43493 (2017)]. To this end, mice were placed individually in a 20 cm high Plexiglas box on a metal surface set at 52, 55 or 58° C., and the latency to initiate a nociceptive response (licking, hind paws shaking, jumping) was monitored by videotape. Mice were removed from the plate immediately after a nociceptive response.

Data set [1] relates to SNI mice. In words: Spared nerve injury (SNI) model of neuropathic pain, paw withdrawal threshold (PWT) by Von Frey test. Format: in vivo, mouse. The note with it: for paw withdrawal threshold (PWT) by the Von Frey test: SNI, 60 days following establishing the model, two i.p. injections with 1 week interval, sulmazole 1.25 mg/kg, sulfamethizole 3.12 mg/kg, vs vehicle (FIG. 8B); for relief in the SNI model of neuropathic pain: intraperitoneal injection at both early and late stages of chronic pain (FIGS. 8B, 21A-B, 22A-B); for mechanosensitivity, paw withdrawal threshold by Von Frey test, dose dependence: one hour following i.p. treatment, one week following establishing SNI (FIGS. 21A-B); for mechanosensitivity, Von Frey tests, time dependence: one week after SNI, 1, 5 and 24 hours following i.p. injection (FIGS. 22A-B). As for the experimental part:
(§1) Chronic neuropathic pain was assessed using the spared nerve injury (SNI) model^13. Mice were anaesthetized with Ketamine/Xylazine (10 mg/kg body weight, intraperitoneal). The skin on the lateral surface of the thigh was incised and a section was made directly through the biceps femoris muscle in order to expose the sciatic nerve and its three terminal branches: the sural, common peroneal and tibial nerves. The SNI procedure comprised an axotomy and ligation of the tibial and common peroneal nerves leaving the sural nerve intact. The peroneal and the tibial nerves were tight-ligated and sectioned distal to the ligation. […] Following, mice were evaluated over a period of three months.
(§2) Von Frey tests of sensitivity to mechanical stimuli were conducted as previously described [Marvaldi et al. Dev Neurobiol 75, 217 (2015)]. Briefly, mice were placed in acrylic chambers suspended above a wire mesh grid and allowed to habituate to the testing apparatus for one hour prior to experiments. When the mouse was calm, the von Frey filaments were pressed against the plantar surface of the paw until the filament buckled and held for a maximum of 3 seconds. A positive response was noted if the paw was sharply withdrawn on application of the filament. Testing began with filament target force 13.7 milliNewtons and progressed according to an up-down method. 2 gram Von Frey filaments were used to assess sensitivity to noxious mechanical stimulation, scoring mice responses as follows: 0, no response; 1, visible signs of discomfort without leg withdrawal; 2, withdrawal of the leg.

Data set [2] deals with SNI mice. The data set can be described thus: Noxious mechanosensitivity of SNI mice, Von Frey filaments of 2 grams force, score 0-2. Particulars: score 0 to 2 (FIG. 22C). Format: in vivo, mouse. As for the experimental part:
as §1
as §2, with “2 gram Von Frey filaments were used to assess sensitivity to noxious mechanical stimulation, scoring mice responses as follows: 0, no response; 1, visible signs of discomfort without leg withdrawal; 2, withdrawal of the leg.” left out

Data set [3] relates to c-Fos nuclear localization in DRG neurons. In words: c-Fos nuclear localization in cultured DRG neurons (immunostaining, quantified). Format: cell-based, mouse. The note with it: sulmazole 0.5 mg/kg; for c-Fos nuclear accumulation: importin α3 null DRG neurons cultured following SNI, sulfamethizole 1.25 mg/kg (FIG. 9); for c-Fos nuclear localization: wild type DRG neurons cultured following SNI, sulfamethizole 1.25 mg/kg, vs vehicle (FIGS. 8C-D). As for the experimental part: Histology—Lumbar sections of the spinal cord including Dorsal root ganglia (DRGs) were pre-fixed for 6 minutes before dissection of spinal cord and associated DRGs. Lumbar DRG (L4, unless otherwise indicated) and/or spinal cord were then fixed for six hours in 4% PFA in PBS, washed in PBS and equilibrated in 20% w/v sucrose in PBS prior to serial cryo-sectioning at a thickness of 10-20 μm. Following, one set for each DRG was processed for immunostaining. Briefly, sections were rehydrated in PBS, blocked and permeabilized with 15% Donkey Serum, 5-10% BSA, 0.3% Triton X-100 in PBS for 1-3 hours and incubated overnight at 4° C. with Mouse anti-βIII tubulin (TuJ1, abcam, ab18207), Rabbit anti-cFos (Millipore, Ab5, 4-17), Mouse anti-cFOS (Millipore Ab5 4-17, IF 1:500), Mouse anti-Jun (BD transduction Laboratories, IF 1:1000), Rabbit TRPV1 (Alomone ACC-030, 1:500), Rabbit anti-GFP (abcam, ab6556, IF & WB1:500), Goat anti-CGRP (AbD SEROTEC, 1720-9007), MBP (Abcam ab7349, IF 1:500) or Rabbit anti-importin α3 (1:2000) antibodies. On the following day, sections were washed three times in PBS prior to incubation for 2 hours with different combinations of donkey anti-chicken/rabbit/mouse secondary antibodies (Alexa Fluor 647, 594, 488; Jackson Immunoresearch, 1:1000). Following, coverslips or slides were washed and mounted with Flouromount-G™.
Image processing—Images were acquired on a confocal laser-scanning microscope (Olympus FV1000, 60× oil-immersion objective Olympus UPLSAPO-NA 1.35) using Fluoview (FV10-ASW 4.1) software. DRG sections were scanned using camera settings identical for all genotypes in a given experiment. Images were imported into the Fiji version (www(dot)//fiji(dot)sc) of ImageJ for threshold subtraction and subsequent analyses as detailed below.
Fluorescence Intensity Analysis: Line scan analysis of fluorescence intensity was carried out on high-resolution confocal z-stack from DRG sections to determine fluorescence intensity of c-FOS and importin α3 over cell regions of interest in-vivo. Briefly, the measurement (in pixels) was effected using the ImageJ drawing tool to draw a line across a neuronal segment covering both cytoplasm and nucleus. All collected traces were then averaged for each experimental group. For comparison of nuclear and cytoplasmic staining intensity 8-bit images of either DRG sections or DRG cultured neurons were processed using the Fiji software. The integrated density was calculated as the sum of the values of the pixels in both cytoplasmic and nuclear regions of interest determined on the basis of TuJ-1, CGRP, TRPV1 or DAPI staining, respectively.
Neuronal cultures—Adult mouse DRG neurons were cultured as previously described [Perry et al. Neuron 75, 294 (2012)], with plating on poly-L-lysine and laminin coated plates or glass cover slips for 24 hours. Where required, L3-L5 DRG neurons from the uninjured side served as controls for cultures from SNI mice.

On to `O=C(O)CCc1cc(C(=O)c2ccc(OC3CCCC3)cc2O)ccc1OCc1ccc2c(=O)[nH]oc2c1` [T-5224], for which the “response to noxious heat” value is reported as “reduced the response to noxious heat” with mice (WT (+/+) mice, 20 mg/kg, i.p. (FIGS. 6J-K)) and “no additional effect beyond the already existing attenuation” with mice (importin α3 null (−/−) mice, 20 mg/kg, i.p. (FIGS. 6J-K)). The “paw withdrawal threshold (PWT) in response to noxious heat” value in the data set on mice (wild-type mice, i.p. at the indicated doses, over eight days post-treatment (FIGS. 7A-B)) was “reduced paw withdrawal in response to noxious heat; also recorded: most marked effect was observed one day following injection of a dose of 10 mg/kg”. In the data set with SNI mice [1] (wild type animals one week following induction of SNI, 10 mg/kg (FIG. 18)), the “paw withdrawal in Von Frey tests” value is reported as “did ameliorate the paw withdrawal latency”.
In the case of `NCC1(CC(=O)O)CCCCC1` [gabapentin], the “paw withdrawal threshold (PWT) in Von Frey tests” value with SNI mice [1] (SNI mice, 100 mg/kg intraperitoneal two months following establishment of the model, again one week later (FIG. 2D)) is “significant amelioration of the phenotype”.
Take `Cc1nnc(NS(=O)(=O)c2ccc(N)cc2)s1` [sulfamethizole, 4-Amino-N-(5-methyl-1,3,4-thiadiazol-2-yl)benzenesulfonamide]: the “responsiveness to noxious heat” value in the data set with mice is listed as “showed efficacy in the assay”. Besides, in the data set on SNI mice [1], the “paw withdrawal threshold (PWT) by the Von Frey test” value is on record as “significant effects”; the “relief in the SNI model of neuropathic pain” value is “time and dose-dependent relief”; the “mechanosensitivity, paw withdrawal threshold by Von Frey test, dose dependence” value was “dose dependent effects”; the “mechanosensitivity, Von Frey tests, time dependence” value is given as “time dependent effects”. Moreover, the “response of SNI injured animals to a noxious mechanical stimulus” value with SNI mice [2] is “provided relief in this assay that was comparable to that provided by knockout or knockdown of importin α3”. In data set [3], the c-Fos nuclear accumulation result was “neither drug had any further effect” and the c-Fos nuclear localization entry is listed as “significantly reduced c-Fos nuclear accumulation”. In addition, the c-Fos nuclear localization result in data set [3] (listed as Sulfamethizole) is “Significant reductions in c-Fos nuclear localization”.
Regarding `COc1cc([S+](C)[O-])ccc1-c1nc2ncccc2[nH]1` (stereo not drawn) [sulmazole, 2-(2-Methoxy-4-[methylsulfinyl]phenyl)-1H-imidazo(4,5-b)pyridine], in the data set with mice, the “responsiveness to noxious heat” value is on record as “showed efficacy in the assay”. Moreover, in the data set on SNI mice [1], the “paw withdrawal threshold (PWT) by the Von Frey test” value is reported as “significant effects”; the “relief in the SNI model of neuropathic pain” value was “time and dose-dependent relief”; the “mechanosensitivity, paw withdrawal threshold by Von Frey test, dose dependence” value is recorded as “dose dependent effects”; the “mechanosensitivity, Von Frey tests, time dependence” value is listed as “time dependent effects”. Also, the “response of SNI injured animals to a noxious mechanical stimulus” value with SNI mice [2] was “provided relief in this assay that was comparable to that provided by knockout or knockdown of importin α3”. Also, in data set [3], the c-Fos nuclear accumulation result is given as “neither drug had any further effect” and the c-Fos nuclear localization entry is on record as “significantly reduced c-Fos nuclear accumulation”. The c-Fos nuclear localization result in data set [3] (listed as Sulmazole) is recorded as “Significant reductions in c-Fos nuclear localization”.

B1: shFOS1: AAV9 shRNA targeting c-Fos, SEQ ID NO: 17 (nucleic acid)
DNA: GATCCGGCGGAGACAGATCAACTTGAAGAAGCTTGTTCAAGTTGATCTGTCTCCGCCTTTTTTT
As for B1, the “response to noxious heat” value in the data set on mice (wild type mice after intrathecal injection of AAV9 construct, vs control construct) was “reduced noxious heat responses”.
